Measured values from patent US20240226115A1, “AXL INHIBITOR COMPOUNDS” (ARCUS BIOSCIENCES, INC., priority 2021, published 2024).

Target: T1, recombinant human MER (Homo sapiens, UniProt Q12866)
T1 construct: purchased Invitrogen
T1 sequence (Q12866 21-999): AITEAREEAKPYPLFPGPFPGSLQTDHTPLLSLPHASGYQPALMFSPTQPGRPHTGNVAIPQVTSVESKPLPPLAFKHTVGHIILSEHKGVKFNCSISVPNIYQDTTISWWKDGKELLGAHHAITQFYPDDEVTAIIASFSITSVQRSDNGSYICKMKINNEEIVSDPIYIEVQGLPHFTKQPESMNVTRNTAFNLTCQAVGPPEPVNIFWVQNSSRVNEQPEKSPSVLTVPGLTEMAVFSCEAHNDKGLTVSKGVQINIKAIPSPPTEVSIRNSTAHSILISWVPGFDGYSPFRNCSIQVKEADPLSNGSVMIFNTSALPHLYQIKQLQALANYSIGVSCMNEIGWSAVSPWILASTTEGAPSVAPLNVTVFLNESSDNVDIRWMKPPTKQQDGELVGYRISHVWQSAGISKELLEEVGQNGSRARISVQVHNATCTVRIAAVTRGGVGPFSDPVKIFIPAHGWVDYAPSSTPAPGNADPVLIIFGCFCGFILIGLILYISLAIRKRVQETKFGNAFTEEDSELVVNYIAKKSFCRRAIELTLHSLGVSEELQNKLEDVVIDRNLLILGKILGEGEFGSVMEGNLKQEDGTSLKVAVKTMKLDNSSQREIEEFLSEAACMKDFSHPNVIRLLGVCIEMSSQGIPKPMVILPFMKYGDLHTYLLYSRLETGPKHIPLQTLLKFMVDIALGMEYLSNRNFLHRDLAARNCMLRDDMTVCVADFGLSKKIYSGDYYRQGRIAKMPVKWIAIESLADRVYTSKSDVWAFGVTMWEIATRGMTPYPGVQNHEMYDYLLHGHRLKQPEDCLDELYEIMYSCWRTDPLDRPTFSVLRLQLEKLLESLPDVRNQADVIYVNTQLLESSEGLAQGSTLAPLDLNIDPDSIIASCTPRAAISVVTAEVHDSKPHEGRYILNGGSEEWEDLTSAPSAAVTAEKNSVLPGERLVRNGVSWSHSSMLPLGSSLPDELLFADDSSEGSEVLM
Assay: HTRF KinEASE-TK biochemical potency, MER
Conditions: 1 nM MER, 700 μM ATP
Method in brief: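 Enzyme preincubated with compound 1 h at RT; final 5 nM AXL or 1 nM TYRO3/MER, 800 nM TK substrate-biotin, 700 μM ATP, HEPES pH 7.4, MgCl2, 1% DMSO, 2 h at RT. HTRF 665/620 ratio read after streptavidin-XL665/cryptate antibody detection; percent activity relative to DMSO and pre-stopped controls.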

| SMILES | IC50 [µM] |
| --- | --- |
| O=C1NCCOc2cc(-c3n[nH]c4ncc(-c5ccc6c(c5)CCN(C5CC5)C6)cc34)ccc21 [Example 21, 8-(5-(2-Cyclopropyl-1,2,3,4-tetrahydroisoquinolin-6-yl)-1H-pyrazolo[3,4-b]pyridin-3-yl)-3,4-dihydrobenzo[f][1,4]oxazepin-5(2H)-one] | 0.1 to 1 |
| C[C@@H]1CCCN1C1CCc2cc(F)c(-c3cnc4[nH]nc(-c5ccc6c(c5)OCCNC6=O)c4c3)cc2CC1 (stereo partly drawn) [Example 58, 8-(5-{3-Fluoro-7-[(2R)-2-methylpyrrolidin-1-yl]-6,7,8,9-tetrahydro-5H-benzo[7]annulen-2-yl}-1H-pyrazolo[3,4-b]pyridin-3-yl)-2,3,4,5-tetrahydro-1,4-benzoxazepin-5-one] | < 0.1 |
| CC1(O)CCCCc2cc(-c3n[nH]c4ncc(-c5ccc6c(c5)CCN(C5CCCC5)CC6)cc34)ccc21 (stereo not drawn) [Example 27, 2-[5-(3-Cyclopentyl-2,3,4,5-tetrahydro-1H-3-benzazepin-7-yl)-1H-pyrazolo[3,4-b]pyridin-3-yl]-5-methyl-6,7,8,9-tetrahydro-5H-benzo[7]annulen-5-ol] | > 1 |
| CC1(O)CCOc2cc(-c3n[nH]c4ncc(-c5ccc6c(c5)CC[C@@H](N5CCCC5)CC6)cc34)ccc21 (stereo partly drawn) [Example 31, 4-Methyl-7-{5-[(7S)-7-(pyrrolidin-1-yl)-6,7,8,9-tetrahydro-5H-benzo[7]annulen-2-yl]-1H-pyrazolo[3,4-b]pyridin-3-yl}-3,4-dihydro-2H-1-benzopyran-4-ol] | 0.1 to 1 |
| O=C1NCCOc2cc(-c3n[nH]c4ncc(-c5ccc6c(c5)CCN(C5COC5)C6)cc34)ccc21 [Example 12, 8-(5-(2-(Oxetan-3-yl)-1,2,3,4-tetrahydroisoquinolin-6-yl)-1H-pyrazolo[3,4-b]pyridin-3-yl)-3,4-dihydrobenzo[f][1,4]oxazepin-5(2H)-one] | 0.1 to 1 |
| O=C1NCCOc2cc(-c3n[nH]c4ncc(-c5ccc6c(c5)CCC(N[C@@H]5CCOC5)CC6)cc34)ccc21 (stereo partly drawn) [Example 46, 8-[5-(7-{[(3R)—Oxolan-3-yl]amino}-6,7,8,9-tetrahydro-5H-benzo[7]annulen-2-yl)-1H-pyrazolo[3,4-b]pyridin-3-yl]-2,3,4,5-tetrahydro-1,4-benzoxazepin-5-one] | < 0.1 |
| O=C1NCCOc2cc(-c3n[nH]c4ncc(-c5ccc6c(c5)CCC(N[C@H]5CCOC5)C6)cc34)ccc21 (stereo partly drawn) [Example 4, 8-[5-(6-{[(3S)—Oxolan-3-yl]amino}-5,6,7,8-tetrahydronaphthalen-2-yl)-1H-pyrazolo[3,4-b]pyridin-3-yl]-2,3,4,5-tetrahydro-1,4-benzoxazepin-5-one] | < 0.1 |
| O=C1NCCOc2cc(-c3n[nH]c4ncc(-c5ccc6c(c5)CCN(C5CC5)CC6)cc34)ccc21 [Example 20, 8-(5-(3-Cyclopropyl-2,3,4,5-tetrahydro-1H-benzo[d]azepin-7-yl)-1H-pyrazolo[3,4-b]pyridin-3-yl)-3,4-dihydrobenzo[f][1,4]oxazepin-5(2H)-one] | 0.1 to 1 |
| O=C1NCCOc2cc(-c3n[nH]c4ncc(-c5ccc6c(c5)CCNCC6)cc34)ccc21 [Example 53, 8-(5-(2,3,4,5-Tetrahydro-1H-benzo[d]azepin-7-yl)-1H-pyrazolo[3,4-b]pyridin-3-yl)-3,4-dihydrobenzo[f][1,4]oxazepin-5(2H)-one] | < 0.1 |
| O=C1NCCOc2cc(-c3n[nH]c4ncc(-c5ccc6c(c5)CC[C@@H](N5CCCC5)CC6)cc34)ccc21 (single isomer, unassigned) [Example 57] | < 0.1 |
| O=C1NCCOc2cc(-c3n[nH]c4ncc(-c5ccc6c(c5)CC(N5CCCC5)CC6)cc34)ccc21 (stereo not drawn) [Example 3, 8-{5-[7-(Pyrrolidin-1-yl)-5,6,7,8-tetrahydronaphthalen-2-yl]-1H-pyrazolo[3,4-b]pyridin-3-yl}-2,3,4,5-tetrahydro-1,4-benzoxazepin-5-one] | < 0.1 |
| C[C@@H]1CCCN1C1CCc2ccc(-c3cnc4[nH]nc(-c5ccc6c(c5)OCC5(CC5)NC6=O)c4c3)cc2CC1 (stereo partly drawn) [Example 36, 8-(5-{7-[(2R)-2-Methylpyrrolidin-1-yl]-6,7,8,9-tetrahydro-5H-benzo[7]annulen-2-yl}-1H-pyrazolo[3,4-b]pyridin-3-yl)-4,5-dihydro-2H-spiro[1,4-benzoxazepine-3,1′-cyclopropan]-5-one] | < 0.1 |
| O=C1NCCOc2cc(-c3n[nH]c4ncc(-c5ccc6c(c5)CN(C5CCCC5)CC6)cc34)ccc21 [Example 10, 8-(5-(2-Cyclopentyl-1,2,3,4-tetrahydroisoquinolin-7-yl)-1H-pyrazolo[3,4-b]pyridin-3-yl)-3,4-dihydrobenzo[f][1,4]oxazepin-5(2H)-one] | < 0.1 |
| CC[C@@H]1CCCN1C1CCc2ccc(-c3cnc4[nH]nc(-c5ccc6c(c5)OCCNC6=O)c4c3)cc2CC1 (stereo partly drawn) [Example 25, 8-(5-{7-[(2R)-2-Ethylpyrrolidin-1-yl]-6,7,8,9-tetrahydro-5H-benzo[7]annulen-2-yl}-1H-pyrazolo[3,4-b]pyridin-3-yl)-2,3,4,5-tetrahydro-1,4-benzoxazepin-5-one] | < 0.1 |
| O=C1NCCOc2cc(-c3n[nH]c4ncc(-c5ccc6c(c5)CCC(N5CCC5)CC6)cc34)ccc21 (stereo not drawn) [Example 52, 8-(5-(7-(Azetidin-1-yl)-6,7,8,9-tetrahydro-5H-benzo[7]annulen-2-yl)-1H-pyrazolo[3,4-b]pyridin-3-yl)-3,4-dihydrobenzo[f][1,4]oxazepin-5(2H)-one] | < 0.1 |
